Values of other authors, collected in patent publication US20230066413A1, “ST[…]” (priority 2021, published 2023).

Tested on: antibiotic-resistant bacteria
Conditions: stated in background, no experiment described

O=c1c(O)c(-c2ccc(O)c(O)c2)oc2cc(O)cc(O)c12 [Quercetin]
bactericidal concentration: 5,000 parts per million
